Data from publication PMC9168369 (Frontiers in Pharmacology, 2022).
Where two headings read alike, the source gives them in different places.

Legend:
[1] = system: Hela cells; assay: Cell anti-proliferative activity, CCK8 assay; type: cell-based; settings: Homo sapiens, CCK8, 48 h, 0.25 to 16.0 μM
Method: Cell anti-proliferative activity to Hela was evaluated by the CCK8 assay. The Hela cells were seeded at a density of 2,000 cells per well into a 96-well microplate in 100 μl of the growth medium. Cells were incubated at 37°C and 5% CO2 overnight. The next day, 100 μl per well of the diluted inhibitor in the growth medium was added with the final concentration from 0.25 to 16.0 μM. The cells were treated with DMSO as control. A series of dilutions were made in 0.1% DMSO in the assay medium so that the final concentration of DMSO was 0.1% in all of treatments. Cells were incubated at 37°C and 5% CO2 for 48 h. Then, 10 μl of CCK8 was added to each well. The plates were incubated at 37°C for 2 h, after that, the plates were recorded by measuring the absorbance at 450 nm with the reference wavelength of 630 nm using an EnVision Multilabel Reader (PerkinElmer). All assays were conducted with three parallel samples and three repetitions.

[2] = system: SHEE cells (human immortalized esophageal epithelial cell line); assay: Toxicity to SHEE, MTT assay; type: cell-based; settings: 48 h, read-out: IC50 SHEE
Method: Toxicity to SHEE was evaluated by using the MTT assay. The SHEE cells were seeded in 96-well plates with densities of 2,200–2,500 cells/well in 100 μl. One day after seeding, the concentration of the test compounds being between 0 and 50 μM, 0.1% DMSO were added to the cells as control. Approximately 2,200–2,500 transfected cells in 100 μl were incubated in quintuplicate in 96-well plates. After 48 h, MTT was added and incubated in the plate for 1–4 h in the incubator. The absorbance at 490 nm was measured using a microplate reader (Thermo).

[3] = target: T1, human IDO1 (Homo sapiens, UniProt P14902); assay: Hela cell based IDO1 assay (kynurenine readout, IFN-γ induced); settings: Hela cells, human IFN-γ 100 ng/ml, 18 h
T1 construct: Hela cell was selected because of its expression in native human IDO1 induced with IFNγ; endogenous in cells; host or cells: Hela cells (ATCC), induced with human IFN-γ 100 ng/ml
Method: To perform the Hela cell based IDO1 assay, Hela cells were seeded at 50,000 cells per well into a 96-well microplate in 100 μl of DMEM complete growth medium overnight. The next day, 100 μl of the diluted inhibitor was added into each well in the growth medium, then human IFN-γ was added with a final concentration of 100 ng/ml. Cells were incubated for 18 h. […] The plate was incubated at 50°C for 30 min to hydrolyze N-formyl kynurenine produced by IDO to kynurenine. The plate was then centrifuged at 2,500 rpm for 10 min to remove sediments. 100 μl of supernatant per well was transferred to another 96-well plate and mixed with 100 μl of 2% (w/v) 4-(dimethylamino) benzaldehyde in acetic acid. The plate was incubated at room temperature for 10 min, the yellow color derived from kynurenine was recorded by measuring the absorbance at 480 nm using a microplate reader (PerkinElmer, United States).

[4] = design: method as in Ma et al. (2019); settings: ref Ma et al. (2019); cited from earlier work
[5] = system: IDO1; settings: read-out: average IC50, cellular assay; ref Yue et al., 2017; Komiya and Huang, 2018; cited from earlier work

T1 sequence (P14902 whole entry): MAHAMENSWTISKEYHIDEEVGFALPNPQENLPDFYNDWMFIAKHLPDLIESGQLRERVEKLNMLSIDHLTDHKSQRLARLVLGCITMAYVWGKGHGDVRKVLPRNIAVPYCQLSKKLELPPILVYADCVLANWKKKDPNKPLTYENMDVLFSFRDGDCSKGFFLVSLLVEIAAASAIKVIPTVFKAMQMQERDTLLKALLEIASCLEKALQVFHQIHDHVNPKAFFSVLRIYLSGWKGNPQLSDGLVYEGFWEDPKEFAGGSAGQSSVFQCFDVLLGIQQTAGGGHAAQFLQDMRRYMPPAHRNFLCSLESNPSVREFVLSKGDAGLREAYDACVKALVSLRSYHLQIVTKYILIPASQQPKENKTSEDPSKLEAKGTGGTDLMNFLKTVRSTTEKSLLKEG

Row | Compound | IC50 [1] [µM] | melting point [°C] | IC50 [3] [µM] | also measured
1 | COCCOc1cc2ncnc(Nc3cccc(-c4cn(-c5ccccc5)nn4)c3)c2cc1OCCOC [compound a, [6,7-Bis-(2-methoxy-ethoxy)-quinazolin-4-yl]-[3-(1-phenyl-1H-[1,2,3]triazol-4-yl)-phenyl]-amine] | > 16 | – | – | –
2 | COCCOc1cc2ncnc(Nc3cccc(-c4cn(Cc5ccccc5)nn4)c3)c2cc1OCCOC [compound b, N-(3-(1-Benzyl-1H-1,2,3-triazol-4-yl)phenyl)-6,7-bis(2-methoxyethoxy)quinazolin-4-amine] | > 16 | 89 to 92 | – | IC50 ([2]; MTT, 0 to 50 μM): > 50 µM
3 | C#Cc1cccc(Nc2ncnc3cc(OCCOC)c(OCCOC)cc23)c1 [Erlotinib, reference compound] | > 16 | – | – | IC50 [2]: 21 ± 2.11 µM
4 | O[C@H](C[C@H]1c2c(F)cccc2-c2cncn21)[C@H]1CC[C@H](O)CC1 [Navoximod] | – | – | – | absorption [4]: quickly absorbed; tolerability [4]: well tolerated

More lines, main results first:

Row | IC50 [1] [µM] | melting point [°C] | IC50 [3] [µM] | Compound | also measured
6 | > 16 | 94 to 97 | 0.32 ± 0.07 | COCCOc1cc2ncnc(Nc3cccc(-c4cn(Cc5ccccc5Br)nn4)c3)c2cc1OCCOC [compound e, [6,7-Bis-(2-methoxy-ethoxy)-quinazolin-4-yl]-{3-[1-(2-bromo-benzyl)-1H-[1,2,3]triazol-4-yl]-phenyl}-amine] | –
7 | – | 93 to 96 | 0.4 ± 0.14 | COCCOc1cc2ncnc(Nc3cccc(-c4cn(Cc5ccccc5I)nn4)c3)c2cc1OCCOC [compound d, [6,7-Bis-(2-methoxy-ethoxy)-quinazolin-4-yl]-{3-[1-(2-iodo-benzyl)-1H-[1,2,3]triazol-4-yl]-phenyl}-amine] | –
8 | > 16 | 109 to 112 | 47.1 ± 33.2 | COCCOc1cc2ncnc(Nc3cccc(-c4cn(CCc5ccccc5)nn4)c3)c2cc1OCCOC [compound c, [6,7-Bis-(2-methoxy-ethoxy)-quinazolin-4-yl]-[3-(1-phenethyl-1H-[1,2,3]triazol-4-yl)-phenyl]-amine] | –
